Assay results as given in patent US20230265083A1, “Heterocycle CDK Inhibitors And Their Use Thereof” (Prelude Therapeutics Incorporated, priority 2020, published 2023).

What was measured:
CDK2/Cyclin A2 = target: T1, CDK2/Cyclin A2 (Homo sapiens, UniProt P24941); test: CDK2/CyclinA2 Enzymatic Activity Assay (TR-FRET); format: biochemical; conditions: ATP 1 mM, recombinant CDK2/Cyclin A2 1 nM, read-out: CDK2_A2 IC50
T1 construct: purchased ProQinase; host or cells: insect cell
Experimental: CDK2/CyclinA2 Enzymatic Activity Assay
(§1) The inhibitory activity of compounds was evaluated in vitro using TR-FRET assay with white 384-well low volume microplate (Greiner Bio-One). CDK2/Cyclin A2 catalyzed phosphorylation of peptides in the presence and absence of compounds was measured and used in IC50 determination. Recombinant protein complex CDK2/Cyclin A2, expressed from insect cell, was purchased from ProQinase. Testing compounds were dissolved in DMSO at 1 mM and tested in 9-dose IC50 mode. The reaction mixture was prepared by mixing CDK2/CyclinA2 (1 nM final), ULight-4E-BP1 (50 nM final, Perkinelmer, TRF0128-D), and ATP (1 mM final) in assay buffer (20 mM of HEPES pH 7.4, 1 mM of EGTA, 0.05% BSA, 0.005% Tween 20, and 1 mM TCEP). The compound of interest in DMSO was added to each well in 3-fold serial dilution by the dispenser (TECAN D300E) to make a 9.9 μL of the reaction mixture. After 20 minutes preincubation at room temperature, 0.1 μL MgCl2 (10 mM final) was added to initiate the reaction. Following a 45 minutes incubation at 37° C., the reaction was stopped by addition of 2 μL of quenching buffer consisting of Lance detection buffer (Perkinelmer CR97-100C), LANCE Ultra Europium-anti-P-4E-BP1 (Perkinelmer, TRF0216-D), EDTA, and incubate at room temperature for additional 60 minutes in the dark. The reaction signal was measured by Envision multimode plate reader (PerkinElmer, 2102-0010). IC50 values were determined by fitting the data to the standard 4 parameters with Hill Slope using GraphPad Prism software.

CDK4/Cyclin D1 = target: T2, CDK4/Cyclin D1 (Homo sapiens, UniProt P11802); test: CDK4/CyclinD1 Enzymatic Activity Assay (TR-FRET); format: biochemical; conditions: ATP 2 mM, recombinant CDK4/Cyclin D1 1 nM, read-out: CDK4_D1 IC50
T2 construct: purchased ProQinase; host or cells: insect cell
T2 sequence (P11802 whole entry): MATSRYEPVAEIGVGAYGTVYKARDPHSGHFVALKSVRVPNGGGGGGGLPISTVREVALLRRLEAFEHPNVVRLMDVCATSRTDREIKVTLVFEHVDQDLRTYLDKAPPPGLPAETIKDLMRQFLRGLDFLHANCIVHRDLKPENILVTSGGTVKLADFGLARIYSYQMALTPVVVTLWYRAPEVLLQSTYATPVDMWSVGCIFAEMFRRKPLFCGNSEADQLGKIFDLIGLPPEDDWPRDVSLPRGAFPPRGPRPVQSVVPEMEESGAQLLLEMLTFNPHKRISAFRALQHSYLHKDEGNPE
T2 sequence (P24385 whole entry partner): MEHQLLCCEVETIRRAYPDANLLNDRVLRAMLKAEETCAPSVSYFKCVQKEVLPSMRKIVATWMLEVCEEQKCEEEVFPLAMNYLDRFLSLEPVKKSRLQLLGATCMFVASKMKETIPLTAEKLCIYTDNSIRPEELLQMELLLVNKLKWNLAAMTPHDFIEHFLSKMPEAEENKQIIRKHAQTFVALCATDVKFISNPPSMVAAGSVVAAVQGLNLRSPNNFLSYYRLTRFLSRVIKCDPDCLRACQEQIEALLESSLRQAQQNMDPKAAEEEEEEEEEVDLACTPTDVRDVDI
Experimental: CDK4/CyclinD1 Enzymatic Activity Assay
The inhibitory activity of compounds was evaluated in vitro using TR-FRET assay with white 384-well low volume microplate (Greiner Bio-One). CDK4/Cyclin D1 catalyzed phosphorylation of peptides in the presence and absence of compounds was measured and used in IC50 determination. Recombinant protein complex CDK4/Cyclin D1, expressed from insect cell, was purchased from ProQinase. Testing compounds were dissolved in DMSO at 1 mM and tested in 9-dose IC50 mode. The reaction mixture was prepared by mixing CDK4/CyclinD1 (1 nM final), ULight-4E-BP1 (100 nM final, Perkinelmer, TRF0128-D), and ATP (2 mM final) in assay buffer (20 mM of HEPES pH 7.4, 1 mM of EGTA, 0.05% BSA, 0.005% Tween 20, and 1 mM TCEP). The compound of interest in DMSO was added to each well in 3-fold serial dilution by the dispenser (TECAN D300E) to make a 9.9 μL of the reaction mixture. After 20 minutes of preincubation at room temperature, 0.1 μL MgCl2 (10 mM final) was added to initiate the reaction. Following a 45 minutes incubation at 37° C., the reaction was stopped by the addition of 2 μL of quenching buffer consisting of Lance detection buffer (Perkinelmer CR97-100C), LANCE Ultra Europium-anti-P-4E-BP1 (Perkinelmer, TRF0216-D), EDTA, and incubate at room temperature for additional 60 minutes in the dark. The reaction signal was measured by Envision multimode plate reader (PerkinElmer, 2102-0010). IC50 values were determined by fitting the data to the standard 4 parameters with Hill Slope using GraphPad Prism software.

CDK9/Cyclin T1 = target: T3, CDK9/Cyclin T1 (Homo sapiens, UniProt P50750); test: CDK9/CyclinT1 Enzymatic Activity Assay (TR-FRET); format: biochemical; conditions: ATP 1 mM, recombinant CDK9/Cyclin T1 1 nM, read-out: CDK9_T1 IC50
T3 construct: purchased ProQinase; host or cells: insect cell
T3 sequence (P50750 whole entry): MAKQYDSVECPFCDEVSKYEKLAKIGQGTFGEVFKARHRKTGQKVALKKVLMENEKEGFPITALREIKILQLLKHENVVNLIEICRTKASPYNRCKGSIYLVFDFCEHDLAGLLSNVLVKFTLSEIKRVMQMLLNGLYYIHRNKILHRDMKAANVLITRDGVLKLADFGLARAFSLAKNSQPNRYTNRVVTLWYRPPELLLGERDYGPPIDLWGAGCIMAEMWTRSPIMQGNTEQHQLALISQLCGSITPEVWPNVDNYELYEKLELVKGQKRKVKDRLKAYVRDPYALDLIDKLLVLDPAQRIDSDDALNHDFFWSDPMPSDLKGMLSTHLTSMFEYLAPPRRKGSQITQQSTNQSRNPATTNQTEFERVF
T3 sequence (O60563 whole entry partner): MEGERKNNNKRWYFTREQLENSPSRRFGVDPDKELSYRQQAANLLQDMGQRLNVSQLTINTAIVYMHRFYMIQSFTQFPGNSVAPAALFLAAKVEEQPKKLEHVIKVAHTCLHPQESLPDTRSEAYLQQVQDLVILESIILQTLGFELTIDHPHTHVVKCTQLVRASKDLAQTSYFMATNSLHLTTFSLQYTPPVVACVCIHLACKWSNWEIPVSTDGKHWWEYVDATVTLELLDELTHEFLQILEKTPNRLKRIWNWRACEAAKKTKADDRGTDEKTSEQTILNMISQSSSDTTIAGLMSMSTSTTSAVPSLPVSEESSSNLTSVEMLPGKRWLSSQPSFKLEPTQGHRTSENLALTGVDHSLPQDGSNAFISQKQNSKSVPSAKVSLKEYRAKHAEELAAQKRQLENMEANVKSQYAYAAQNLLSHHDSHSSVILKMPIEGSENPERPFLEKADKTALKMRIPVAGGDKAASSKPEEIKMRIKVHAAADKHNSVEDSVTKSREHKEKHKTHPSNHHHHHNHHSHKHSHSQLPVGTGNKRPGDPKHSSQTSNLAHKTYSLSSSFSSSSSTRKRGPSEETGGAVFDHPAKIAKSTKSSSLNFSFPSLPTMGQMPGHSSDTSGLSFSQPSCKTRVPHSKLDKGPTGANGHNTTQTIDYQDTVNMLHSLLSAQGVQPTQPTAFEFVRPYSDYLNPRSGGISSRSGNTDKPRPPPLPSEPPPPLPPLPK
Experimental: CDK9/CyclinT1 Enzymatic Activity Assay
as §1, with “(Greiner Bio-One). CDK9/Cyclin T1 catalyzed phosphorylation” for “(Greiner Bio-One). CDK2/Cyclin A2 catalyzed phosphorylation”, “protein complex CDK9/Cyclin T1, expressed from” for “protein complex CDK2/Cyclin A2, expressed from”, “by mixing CDK9/CyclinT1 (1 nM” for “by mixing CDK2/CyclinA2 (1 nM”, “20 minutes of preincubation at” for “20 minutes preincubation at”, “stopped by the addition of” for “stopped by addition of”

H929 cells = test: CellTiter-Glo Protocol (Proliferation); format: cell-based; conditions: Homo sapiens, NCI-H929, 24 hours, read-out: PROLIFERATION_CTG_H929 IC50
Experimental: CellTiter-Glo® Protocol (Proliferation)
Dispense 10 μL aliquot of prepared H929 cells (1:1 ratio of cells: Trypan Blue (#1450013, Bio-Rad)) onto cell counting slide (#145-0011, Bio-Rad) and obtain cell density and cell viability using a cell counter (TC20, Bio-Rad). Remove appropriate volume of resuspended cells from culture flask to accommodate 4000 cells/well at 10 μL/well. Transfer H929 cells to 50 mL conical (#430290, Corning). Spin down at 1000 rpm for 5 min. using a tabletop centrifuge (SPINCHRON 15, Beckman). Discard supernatant and resuspend cell pellet in modified RPMI 1640 (#10-040-CV, Corning) cell culture media containing 10% FBS (F2422-500ML, Sigma), sodium pyruvate (100 mM) (#25-000-CL, Corning), HEPES buffer (1M) (#25-060-CL, Corning) and glucose (200 g/L) (A24940-01, Gibco) to a cell density of 400,000 cells/mL. Dispense 10 μL of resuspended H929 cells per well in 384-well small volume TC treated plate (#784080, Greiner Bio-one) using standard cassette (#50950372, Thermo Scientific) on Multidrop Combi (#5840310, Thermo Scientific) in laminar flow cabinet. Dispense compounds onto plates using a digital liquid dispenser (D300E, Tecan). Incubate plates in humidified tissue culture incubator at 37° C. for 24 hours. Add 10 μL of prepared CellTiTer-Glo® detection buffer (G7570, Promega) to each well of 384-well plate using small tube cassette (#24073295, Thermo Scientific) on Combi multi-drop, incubate at RT for 30-60 min. Read plates with a microplate reader (PheraStar, BMG Labtech) using 384 well luminescence mode. See Table B (Proliferation_CTG_H929).

Cc1cnc(NC(=O)[C@H]2CCC[C@@H](NC(=O)CC#N)C2)cc1-c1cccc2c1OCCN2 [Example 8, (1S,3R)-3-(2-cyanoacetamido)-N-(4-(3,4-dihydro-2H-benzo[b][1,4]oxazin-8-yl)-5-methylpyridin-2-yl)cyclohexane-1-carboxamide] was tested, and the IC50 (CDK2/Cyclin A2) was over 1000 nM, the IC50 (CDK4/Cyclin D1) was over 1000 nM and the IC50 (CDK9/Cyclin T1) was 20 to 200 nM. The IC50 (H929 cells) was 200 to 1000 nM.
